In patent US20230255904A1, “PHARMACEUTICAL COMPOSITION FOR PREVENTING OR TREATING CANCER COMPRISING NAPHTHOQUINONE-BASED COMPOUND AND IMMUNE CHECKPOINT INHIBITOR AS ACTIVE INGREDIENTS” (NADIANBIO LTD., priority 2020, published 2023):

How the values were obtained:
MC38 = test: Tumor growth inhibition, animal model for colorectal cancer I (MC38); type: in vivo, C57BL/6 mice
Experimental: (§1) All mice used in the experiments were raised in a sterile animal room with constant temperature (22° C. to 26° C.) and constant humidity (55% to 60%), acclimatized for 1 week while sufficiently supplying typical solid feed (Samtako Inc., Korea) and water, and then used. All experiments were conducted after obtaining approval from the Institutional Animal Care and Use Committee in accordance with the laboratory animal care and ethics regulations of the Institutional Animal Care and Use Committee of Wonkwang University.
(§2) 7-week-old BALB/c or C57BL/6 mice were used, and subcutaneously inoculated using a 1-mL insulin syringe within 30 minutes after mixing the mouse cancer cells with 0.2 mL of PBS.
(§3) After the cancer cell line was subcutaneously implanted, the administration of drugs was started when the size of the cancer reached 50 to 100 mm^3. The volumes (mm^3) of the tumors, which were generated after the inoculation, were measured at intervals of 3 days using a caliper, calculation was performed using the formula of […], and then the results thereof were compared.
(§4) In addition, sole administration or co-administration of respective drugs was performed according to the administration schedules listed in Tables 4 to 34 below, the tumor volumes were then measured according to the tumor proliferation assessment method described in Example 1.1, the tumor growth inhibition rates (TGI (O)=(Vc−Vt)/Vc×100(%); Vc: tumor volume of control, Vt tumor volume of experimental group) were calculated based the tumor volumes, and the results thereof are shown in the respective tables and FIGS. 1 to 31.

CT26 = test: Tumor growth inhibition, animal model for colorectal cancer II (CT26); type: in vivo,  mice; conditions: Dunnione 40 mg/kg oral every day from 6th day, 4 times
Experimental: as §1, §2
as §3, with “compared. […]” for “compared.”

4T1 = test: Tumor growth inhibition, animal model for breast cancer I (4T1); type: in vivo, BALB/c mice
Experimental: as §1, §2, §3, §4

RENCA = test: Tumor growth inhibition, animal model for renal cancer (RENCA); type: in vivo, BALB/c mice
Experimental: as §1, §2, §3, §4

B16F10 = test: Tumor growth inhibition, animal model for skin cancer (B16F10); type: in vivo,  mice
Experimental: as §1, §2, §3, §4

KLN205 = test: Tumor growth inhibition, animal model for lung cancer I (KLN205); type: in vivo, DBA/2 mice; conditions: Experimental Example 30, dunnione 40 mg/kg oral daily from 5th day, anti-PD-1 antibody 100 μg/head, carboplatin 25 mg/kg + paclitaxel 10 mg/kg intraperitoneal 2 times a week, 4 times in total
Experimental: as §1, §2
as §3, with “compared. […]” for “compared.”

[1] = tested on: spontaneous non-small cell lung cancer (Kras^LSL-G12D/+; Trp53^flox/flox mice); test: Tumor proliferation in genetically engineered mouse models for spontaneous non-small cell lung cancer (Micro-CT); type: in vivo; conditions: compared to before the drug administration, Micro-CT imaging; dunnione 40 mg/kg, carboplatin 25 mg/kg, paclitaxel 10 mg/kg, anti-PD-1 antibody 200 μg/head
Source text: Models for spontaneous non-small cell lung cancer were induced by constructing conditional mutant mice (Kras^LSL-G12D/+; Trp53^flox/flox mice) having Ras activation and p53 variation through crossbreeding of conditional K-Ras activation variation-genetically engineered mice and conditional p53 variation-genetically engineered mice, and then performing intratracheal instillation of adenoviruses (Ad5-CMV-Cre; 2.5×10^7 PFU/infectious units), into which Cre genes were introduced, into the lung. […]
After sole administration or co-administration of respective drugs was performed according to the administration schedule listed in Table 38 below and FIG. 35, the tumor growth rate for each group compared to before the drug administration was measured at the 6th week through Micro-CT imaging, and the results thereof were summarized in Table 39.

SMILES: CC1OC2=C(C(=O)C(=O)c3ccccc32)C1(C)C (stereo not drawn) [Dunnione, 2,3,3-trimethyl-2H-benzo[g][1]benzofuran-4,5-dione]
- TGI (%) (MC38; Experimental Example 1, Dunnione 40 mg/kg oral every day from 5th day, Anti-PD-1 antibody 200 μg/head i.p. at intervals of 3 days from 5th day, 4 times, Oxaliplatin 6 mg/kg + 5-Fluorouracil 50 mg/kg i.p. once on 5th day): 8.1%
- TGI (%) (MC38; Experimental Example 2, Dunnione 40 mg/kg oral every day from 5th day, Anti-CTLA4 antibody 200 μg/head i.p. at intervals of 3 days from 5th day, 4 times, Oxaliplatin 6 mg/kg + 5-Fluorouracil 50 mg/kg i.p. once on 5th day): 7.6%
- TGI (%) (MC38; Experimental Example 3, Dunnione 40 mg/kg oral every day from 4th day, Anti-PD-1 antibody 100 ug/head + Anti-CTLA4 antibody 100 μg/head i.p. at intervals of 3 days from 4th day, 4 times, Oxaliplatin 6 mg/kg + 5-Fluorouracil 50 mg/kg i.p. once on 4th day): 5.3%
- TGI (%) (MC38; Experimental Example 4, Dunnione 40 mg/kg oral every day from 7th day, Anti-LAG3 antibody 200 μg/head i.p. on 7th, 10th, 14th, 17th days, Oxaliplatin 6 mg/kg i.p. on 7th and 14th days): 13.1%
- TGI (%) (MC38; Experimental Example 5, Dunnione 40 mg/kg oral every day from day of cancer cell implantation, Anti-PD-1 antibody 200 μg/head i.p. at intervals of 3 days from 7th day, 4 times): 28.5%
- TGI (%) (MC38; Experimental Example 6, Dunnione 40 mg/kg oral every day from 7th day, Anti-PD-1 antibody 100 μg/head i.p. 2 times a week from 7th day, 4 times, Regorafenib 10 mg/kg oral every day from 7th day): 36.8%
- TGI (%) (MC38; Experimental Example 7, Dunnione 40 mg/kg oral every day from 6th day, Anti-PD-1 antibody 100 μg/head i.p. 2 times a week from 6th day, 2 times, Abemaciclib 75 mg/kg oral every day from 6th day): 9.9%
- TGI (%) (CT26; Experimental Example 8, Irinotecan 4.626 mg/kg + Leucovorin 10.28 mg/kg + 5-Fluorouracil 61.68 mg/kg i.p. 2 times a week from 6th day): 21.2%
- TGI (%) (CT26; Experimental Example 9, Anti-PD-1 antibody 200 μg/head i.p. 2 times a week from 6th day): 25.5%
- TGI (%) (4T1; Experimental Example 10, Dunnione 40 mg/kg oral every day from 5th day, Anti-CTLA4 antibody 200 μg/head i.p. at intervals of 3 days from 5th day, 4 times, Mitoxantrone 6 mg/kg i.p. once on 5th day): 8.9%
- TGI (%) (4T1; Experimental Example 12, Dunnione 40 mg/kg oral every day from 7th day, Adriamycin 3.08 mg/kg + Cyclophosphamide 30.8 mg/kg + Paclitaxel 4.12 mg/kg i.p. at intervals of 1 week from 7th day, 3 times): 23.6%
- TGI (%) (4T1; Experimental Example 13, Dunnione 40 mg/kg oral every day from 7th day, Docetaxel 4.06 mg/kg + Adriamycin 2.7 mg/kg + Cyclophosphamide 27 mg/kg i.p. at intervals of 1 week from 7th day, 4 times): 16.1%
- TGI (%) (RENCA; Experimental Example 15, Dunnione 40 mg/kg oral every day from 7th day, Anti-CTLA4 antibody 200 μg/head i.p. at intervals of 3 days from 7th day, 7 times, Everolimus 250 μg/kg oral every day from 7th day): 7.8%
- TGI (%) (RENCA; Experimental Example 16, Dunnione 40 mg/kg oral every day from 7th day, Sorafenib 10 mg/kg oral every day from 7th day): 14.5%
- TGI (%) (RENCA; Experimental Example 17, Dunnione 40 mg/kg oral every day from 7th day, Anti-CTLA4 antibody 200 μg/head i.p. at intervals of 3 days from 7th day, 3 times, Sorafenib 10 mg/kg oral every day from 7th day): 14.5%
- TGI (%) (RENCA; Experimental Example 18, Dunnione 40 mg/kg oral every day from 7th day, Anti-PD-1 antibody 100 μg/head i.p. 2 times a week from 7th day, 5 times, Everolimus 0.1 mg/kg oral every day from 7th day): 5.2%
- TGI (%) (RENCA; Experimental Example 19, Dunnione 40 mg/kg oral every day from 7th day, Anti-CTLA4 antibody 200 μg/head i.p. 2 times a week from 7th day, 5 times, Sorafenib 10 mg/kg oral every day from 7th day): 44.6%
- TGI (%) (RENCA; Experimental Example 20, Dunnione 40 mg/kg oral every day from 10th day, Anti-CTLA4 antibody 200 μg/head i.p. 2 times a week from 10th day, 5 times, Vistusertib 10 mg/kg oral every day from 10th day): 33.2%
- TGI (%) (B16F10; Experimental Example 21, Dunnione 40 mg/kg oral every day from 6th day, Anti-PD-L1 antibody 200 μg/head i.p. 2 times a week from 6th day, 3 times): 24.1%
- TGI (%) (B16F10; Experimental Example 22, Dunnione 40 mg/kg oral every day from 6th day, Anti-PD-L1 antibody 200 μg/head i.p. 2 times a week from 6th day, 3 times, Paclitaxel 14 mg/kg i.p. at intervals of 1 week from 6th day, 2 times): 24.1%
- TGI (%) (B16F10; Experimental Example 23, Dunnione 40 mg/kg oral every day from 6th day, Anti-CTLA4 antibody 200 μg/head i.p. 2 times a week from 6th day, 4 times, Paclitaxel 14 mg/kg i.p. once on 6th day): 16.7%
- TGI (%) (B16F10; Experimental Example 24, Dunnione 40 mg/kg oral every day from 7th day, Anti-CTLA4 antibody 100 μg/head i.p. 2 times a week from 7th day, 2 times, Regorafenib 3 mg/kg oral every day from 7th day): 9.2%
- TGI (%) (B16F10; Experimental Example 25, Dunnione 40 mg/kg oral every day from 8th day, Anti-PD-1 antibody 100 μg/head i.p. 2 times a week from 8th day, 3 times, Vistusertib 15 mg/kg oral every day from 8th day): 34.6%
- TGI (%) (B16F10; Experimental Example 26, Dunnione 40 mg/kg oral every day from 8th day, Everolimus 0.5 mg/kg oral every day from 8th day): 31.5%
- TGI (%) (B16F10; Experimental Example 27, Dunnione 40 mg/kg oral every day from 8th day, Anti-PD-1 antibody 100 μg/head i.p. 2 times a week from 8th day, 3 times, Everolimus 0.5 mg/kg oral every day from 8th day): 34.6%
- TGI (%) (KLN205): 10.2%
- Tumor growth rate (fold) at 6th week [1]: 34.6 ± 54 fold
